Source: PubChem BioAssay (NCI)
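Grown in 96-well plates, cells were treated for 48 hours with each compound at five concentrations. Insufficient inhibition: endpoint recorded as highest concentration tested. Definition used: TGI = concentration required for complete inhibition of growth.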

Tests used:
Assay in all cases: DTP human tumour cell line panel, 48 h
HL-60(TB) leukemia = tested on: HL-60(TB) leukemia
OVCAR-8 ovarian = tested on: OVCAR-8 ovarian
SF-539 CNS = tested on: SF-539 CNS
U251 CNS = tested on: U251 CNS
TK-10 renal = tested on: TK-10 renal
HCT-116 colon = tested on: HCT-116 colon
KM12 colon = tested on: KM12 colon
NCI-H23 lung = tested on: NCI-H23 lung
HT29 colon = tested on: HT29 colon
SNB-19 CNS = tested on: SNB-19 CNS
CAKI-1 renal = tested on: CAKI-1 renal
M14 melanoma = tested on: M14 melanoma
LXFL 529 NSCLC = tested on: LXFL 529 NSCLC
MALME-3M melanoma = tested on: MALME-3M melanoma
SF-268 CNS = tested on: SF-268 CNS
HCC-2998 colon = tested on: HCC-2998 colon
SW-620 colon = tested on: SW-620 colon
OVCAR-3 ovarian = tested on: OVCAR-3 ovarian
K-562 leukemia = tested on: K-562 leukemia
SN12C renal = tested on: SN12C renal
SK-OV-3 ovarian = tested on: SK-OV-3 ovarian
SNB-75 CNS = tested on: SNB-75 CNS
RXF 393 renal = tested on: RXF 393 renal
DMS 273 small cell lung = tested on: DMS 273 small cell lung
NCI-H460 lung = tested on: NCI-H460 lung
DMS 114 small cell lung = tested on: DMS 114 small cell lung
UO-31 renal = tested on: UO-31 renal
A549 NSCLC = tested on: A549 NSCLC
COLO 205 colon = tested on: COLO 205 colon
XF 498 CNS = tested on: XF 498 CNS
HOP-18 NSCLC = tested on: HOP-18 NSCLC
EKVX NSCLC = tested on: EKVX NSCLC
A498 renal = tested on: A498 renal
UACC-257 melanoma = tested on: UACC-257 melanoma
786-0 renal = tested on: 786-0 renal
HOP-92 NSCLC = tested on: HOP-92 NSCLC
IGROV1 ovarian = tested on: IGROV1 ovarian
RPMI-8226 leukemia = tested on: RPMI-8226 leukemia
OVCAR-5 ovarian = tested on: OVCAR-5 ovarian
DLD-1 colon = tested on: DLD-1 colon
UACC-62 melanoma = tested on: UACC-62 melanoma
SNB-78 CNS = tested on: SNB-78 CNS
HCT-15 colon = tested on: HCT-15 colon
HOP-62 NSCLC = tested on: HOP-62 NSCLC
SK-MEL-2 melanoma = tested on: SK-MEL-2 melanoma
M19-MEL melanoma = tested on: M19-MEL melanoma
SF-295 CNS = tested on: SF-295 CNS
SK-MEL-5 melanoma = tested on: SK-MEL-5 melanoma
CCRF-CEM leukemia = tested on: CCRF-CEM leukemia
KM20L2 colon = tested on: KM20L2 colon
ACHN renal = tested on: ACHN renal
OVCAR-4 ovarian = tested on: OVCAR-4 ovarian
MOLT-4 leukemia = tested on: MOLT-4 leukemia
LOX IMVI melanoma = tested on: LOX IMVI melanoma
NCI-H226 lung = tested on: NCI-H226 lung
SK-MEL-28 melanoma = tested on: SK-MEL-28 melanoma
NCI-H522 lung = tested on: NCI-H522 lung

Nc1ncnc2c1ncn2C1OC(CSCc2ccc(Cl)cc2)C(O)C1O (centres undefined)
TGI (HL-60(TB) leukemia): 62.2 µM | TGI (OVCAR-8 ovarian): > 100 µM | TGI (SF-539 CNS): > 100 µM | TGI (U251 CNS): > 100 µM | TGI (TK-10 renal): > 100 µM | TGI (HCT-116 colon): 61.4 µM | TGI (KM12 colon): 77.4 µM | TGI (NCI-H23 lung): 71.5 µM | TGI (HT29 colon): > 100 µM | TGI (SNB-19 CNS): > 100 µM | TGI (CAKI-1 renal): 54 µM | TGI (M14 melanoma): 36.7 µM | TGI (LXFL 529 NSCLC): 48.3 µM | TGI (MALME-3M melanoma): > 100 µM | TGI (SF-268 CNS): > 100 µM | TGI (HCC-2998 colon): > 100 µM | TGI (SW-620 colon): > 100 µM | TGI (OVCAR-3 ovarian): > 100 µM | TGI (K-562 leukemia): > 100 µM | TGI (SN12C renal): > 100 µM | TGI (SK-OV-3 ovarian): > 100 µM | TGI (SNB-75 CNS): 58.5 µM | TGI (RXF 393 renal): 73.8 µM | TGI (DMS 273 small cell lung): 84.7 µM | TGI (NCI-H460 lung): > 100 µM | TGI (DMS 114 small cell lung): 59.7 µM | TGI (UO-31 renal): 56 µM | TGI (A549 NSCLC): > 100 µM | TGI (COLO 205 colon): > 100 µM | TGI (XF 498 CNS): 85.9 µM | TGI (HOP-18 NSCLC): > 100 µM | TGI (EKVX NSCLC): > 100 µM | TGI (A498 renal): 96 µM | TGI (UACC-257 melanoma): > 100 µM | TGI (786-0 renal): > 100 µM | TGI (HOP-92 NSCLC): 32.3 µM | TGI (IGROV1 ovarian): > 100 µM | TGI (RPMI-8226 leukemia): 67.3 µM | TGI (OVCAR-5 ovarian): > 100 µM | TGI (DLD-1 colon): > 100 µM | TGI (UACC-62 melanoma): > 100 µM | TGI (SNB-78 CNS): > 100 µM | TGI (HCT-15 colon): > 100 µM | TGI (HOP-62 NSCLC): 64.3 µM | TGI (SK-MEL-2 melanoma): 68.7 µM | TGI (M19-MEL melanoma): > 100 µM | TGI (SF-295 CNS): > 100 µM | TGI (SK-MEL-5 melanoma): 90.9 µM | TGI (CCRF-CEM leukemia): > 100 µM | TGI (KM20L2 colon): > 100 µM | TGI (ACHN renal): > 100 µM | TGI (OVCAR-4 ovarian): > 100 µM | TGI (MOLT-4 leukemia): 46 µM | TGI (LOX IMVI melanoma): > 100 µM

COc1cc2cc3c4c(cc(OC)c(OC)c4c2cc1OC)CCN3
TGI (HL-60(TB) leukemia): 42.3 µM | TGI (OVCAR-8 ovarian): > 100 µM | TGI (SF-539 CNS): 51.1 µM | TGI (U251 CNS): > 100 µM | TGI (TK-10 renal): > 100 µM | TGI (HCT-116 colon): > 100 µM | TGI (KM12 colon): > 100 µM | TGI (NCI-H23 lung): > 100 µM | TGI (HT29 colon): 96.2 µM | TGI (NCI-H226 lung): > 100 µM | TGI (SNB-19 CNS): > 100 µM | TGI (CAKI-1 renal): > 100 µM | TGI (M14 melanoma): > 100 µM | TGI (LXFL 529 NSCLC): > 100 µM | TGI (MALME-3M melanoma): > 100 µM | TGI (SK-MEL-28 melanoma): > 100 µM | TGI (SF-268 CNS): > 100 µM | TGI (HCC-2998 colon): > 100 µM | TGI (SW-620 colon): 51.2 µM | TGI (OVCAR-3 ovarian): > 100 µM | TGI (K-562 leukemia): 81.6 µM | TGI (SN12C renal): > 100 µM | TGI (SK-OV-3 ovarian): > 100 µM | TGI (SNB-75 CNS): > 100 µM | TGI (RXF 393 renal): 85.8 µM | TGI (DMS 273 small cell lung): > 100 µM | TGI (NCI-H460 lung): 82.6 µM | TGI (DMS 114 small cell lung): > 100 µM | TGI (UO-31 renal): > 100 µM | TGI (A549 NSCLC): > 100 µM | TGI (COLO 205 colon): 63.2 µM | TGI (XF 498 CNS): > 100 µM | TGI (HOP-18 NSCLC): > 100 µM | TGI (EKVX NSCLC): > 100 µM | TGI (UACC-257 melanoma): > 100 µM | TGI (786-0 renal): > 100 µM | TGI (HOP-92 NSCLC): > 100 µM | TGI (IGROV1 ovarian): > 100 µM | TGI (RPMI-8226 leukemia): 68 µM | TGI (DLD-1 colon): 73.8 µM | TGI (UACC-62 melanoma): 19.5 µM | TGI (NCI-H522 lung): > 100 µM | TGI (SNB-78 CNS): > 100 µM | TGI (HCT-15 colon): > 100 µM | TGI (HOP-62 NSCLC): > 100 µM | TGI (SK-MEL-2 melanoma): 59.7 µM | TGI (M19-MEL melanoma): 25.6 µM | TGI (SF-295 CNS): > 100 µM | TGI (SK-MEL-5 melanoma): > 100 µM | TGI (CCRF-CEM leukemia): 77.2 µM | TGI (KM20L2 colon): 88.5 µM | TGI (ACHN renal): > 100 µM | TGI (OVCAR-4 ovarian): > 100 µM | TGI (MOLT-4 leukemia): > 100 µM | TGI (LOX IMVI melanoma): > 100 µM
